Experiments:
Assay type in all cases: cell-based
[1] = system: PC-3 cells; experiment: Primary 3D screen in Matrigel ECM, morphometric image analysis (AMIDA) of invasion, growth and cell death; conditions: PC-3 in 3D Matrigel; for anti-invasive effects in 3D culture (in words): 0.03-1 μM
Protocol: Three standard of care compounds widely used against PrCa were added as controls; namely, the androgen receptor antagonist enzalutamide (MDV3100), the C17α-hydroxylase/C17,20-lyase inhibitor abiraterone (Zytiga), and the classic mitotic inhibitor paclitaxel. Treatments started at day 4, when well-differentiated round acini were established.
The live 3D cell cultures were then stained with reactive dyes Calcein AM to detect living, and ethidium homodimer to detect dead cells. Images (Fig 4A) were acquired with confocal microscope and image data were analyzed with the AMIDA software. The principles of morphometric image analysis are briefly outlined in S2 Fig.
Fig 4 Primary 3D screen. PC-3 cells were cultured in 3D Matrigel ECM for 4 days and treated for 6 days with 25 betulin derivatives (from 2D high throughput screens), DMSO/vehicle control, and three reference compounds. A) Representative maximum intensity projections of confocal microscope stack images for selected compound treatments at 300 nM concentration (5× objective, scale 100 μm). B) Three graphs showing the relative impact on three morphometric parameters for 7 betulin derivatives, DMSO control, and one control compound (paclitaxel). […] C) Hierarchical clustering was done using three morphological parameters derived from PC3 organoids: spheroid size (area), complexity and the number of dead cells. D) Wound healing curves of the two betulin derivatives 4 and 20, highlighting the 50% cut-off level (orange dashed line).
Next, statistical analyses were performed to interpret the complex image data (Fig 4B and 4C). For simplicity, we focused on only three, basic morphologic parameters from the multiparametric AMIDA readout (Fig 4B): 1) Area (indicating growth of organoids), 2) structural Complexity (as a measure of the intensity of invasion), and 3) Relative Area of dead cells within organoids (red signal as a measure of cytoxicity or apoptosis). Area (Size of organoids; Fig 4B, upper panel) was measured as the number of pixels within a segmented structure. […] Shape Complexity (Fig 4B, middle panel) was obtained using the structure size (area) and perimeter (number of border pixels). The more regular the shape of an organoid, the closer it is to a perfect circle, thus minimizing the perimeter relative to object size. […] Deviations from this average (residuals) were interpreted as a measure for the shape complexity of organoids. As a logical lower limit for this measure (represented by a perfect circle), we adjusted the intercept (height level) of the regression line to render all returned residuals as positive numbers.
All 3D cultures were done in growth factor-free Matrigel Basement-membrane Matrix (Corning Inc., New York, NY, USA) using 96-well Angiogenesis μ-plates (ibidi GmbH, Munich, Germany) as described before.[38] “Sandwich” assays in short: bottom wells of cooled Angiogenesis plates were filled with 10 μL 4 mg/mL Matrigel, centrifuged for 20 min 200 g and incubated at 37°C temperature for approximately 30–60 min or until the ECM had polymerized. 1,000–1,500 cells were mixed in 2 mg/mL ECM-medium, and 20 μL of cell suspension was added in each well. The plates were centrifuged for 10 min at 100 g, or until the cells had settled on top of the lower ECM. Finally, the outer wells and side reservoirs were filled with water for humidification, and the culture plates placed into the incubator for 3–4 h or overnight. The following day, 60 μL of cell culture medium were added; refreshed every third day by carefully aspirating the medium.

[2] = system: PC3 cells; experiment: Cell morphology and actin cytoskeleton in 2D monolayer culture; conditions: PC3, 2D, 72h
Protocol: As a control, we also tested morphologies treated with the same panel of anti-invasive compounds 4, 5, 6, 16 and 20 as well as betulin (1) on PC3 cells grown in 2D monolayer cultures (S9 Fig).
Supplementary file pone.0126111.s009.tif: S9 Fig Morphologies of PC-3, LNCaP and Ep156T cells in 2D monolayer culture, exposed 72h to selected betulin derivatives. Actin cytoskeleton (filamentous or F- actin) is stained green (LifeAct), nuclei with a red dye (confocal microscope images, 40× objective, scale bar shown for each panel on the right lower corner). (TIF) Click here for additional data file.

[3] = system: LAPC-4; experiment: Secondary 3D screen (spheroid size, complexity, cell death); conditions: yellow and red clusters
Text: Next, the 25 selected betulin derivatives depicted in Figs 1–3 including control compounds were again thoroughly tested across the same panel of prostate-derived cell lines already used in the preliminary, 2D high-throughput screen. The resulting dendrograms were either generated separately for each cell line (S4 Fig), combined into a single dendrogram (Fig 5A), or shown as reduced organoid sizes (area; Fig 5B).
Fig 5 Secondary 3D screens. Experimental betulin derivatives and control compounds were tested across a panel of prostate cancer lines (LNCaP, LAPC-4) and non-transformed, prostate epithelial cells (EP156T) in 3D culture. A) The dendrogram is based on three main morphological parameters and combines all data from primary and secondary 3D screens. […] B) Boxplots showing the impact of selected compounds on spheroid size (Area). Data scaling: as described in Fig 4 C) Effects of all betulin derivatives and control compounds on cell death (number of dead cells).
All 3D cultures were done in growth factor-free Matrigel Basement-membrane Matrix (Corning Inc., New York, NY, USA) using 96-well Angiogenesis μ-plates (ibidi GmbH, Munich, Germany) as described before.[38] “Sandwich” assays in short: bottom wells of cooled Angiogenesis plates were filled with 10 μL 4 mg/mL Matrigel, centrifuged for 20 min 200 g and incubated at 37°C temperature for approximately 30–60 min or until the ECM had polymerized. 1,000–1,500 cells were mixed in 2 mg/mL ECM-medium, and 20 μL of cell suspension was added in each well. The plates were centrifuged for 10 min at 100 g, or until the cells had settled on top of the lower ECM. Finally, the outer wells and side reservoirs were filled with water for humidification, and the culture plates placed into the incubator for 3–4 h or overnight. The following day, 60 μL of cell culture medium were added; refreshed every third day by carefully aspirating the medium. This “sandwich” setting allows almost unifocal alignment of cells and 3D structures in a single optical plane, thus reducing the time required for confocal stack imaging.
All control compounds were purchased from Selleck (Munich, Germany), except for staurosporine (Sigma-Aldrich, St. Louis, MO, USA) and Y-27632 (Tocris, Bristol, UK) and dissolved in dimethyl sulfoxide (DMSO) as a vehicle at 10 mM. In the primary and secondary 3D screens, experimental and control compound exposures were performed in triplicates. Four concentrations for each compound were applied (0.03, 0.1, 0.3 and 1 μM). Compound treatments were initiated four days after cell embedding, and continued for six days after which spheroids were stained and imaged.
Supplementary file pone.0126111.s004.eps: S4 Fig Secondary screens. Dendrograms for A) LNCaP, B) LAPC-4, and C) Ep156T betulin screens in 3D culture have been constructed using three main read-outs: spheroid size, spheroid complexity, and cell death. […] (EPS) Click here for additional data file.

[4] = system: PC-3; experiment: Wound healing assay in 2D monolayer culture (IncuCyte); conditions: example for inactive derivatives
Protocol: Cells were cultured on ImageLock plates (Essen Bioscience, Ann Arbor, MI, USA) until fully confluent and scratched with a WoundMaker instrument (Essen Bioscience). All detached cells were removed by aspiration and medium supplemented with experimental compounds was added. Wound closure was monitored and quantified with the IncuCyte live-cell imager (Essen Bioscience).
A) Graph showing the transition of PC-3 spheroids from symmetrical acini to irregular invasive structures over 6 days, as measured by general symmetry (roundness %). […] B) Conventional wound healing assay performed in monolayer culture over a period of 64 hours. Wound closure is measured as relative wound density i.e. percentage of original wound area reclaimed by migrating cells. […] (EPS) Click here for additional data file.

## C=C(C)[C@@H]1CC[C@]2(C(=O)O)CC[C@]3(C)[C@H](CC[C@@H]4[C@@]5(C)CC[C@H](O)C(C)(C)[C@@H]5CC[C@]43C)[C@@H]12 [Compound 1, betulinic acid]
[1]; 6 days treatment
  anti-invasive effects in 3D culture (in words): did not show significant anti-invasive effects
[2]
  morphology and actin cytoskeleton of cells in 2D monolayer: No morphologies and visible effects on the actin cytoskeleton

## C=C(C)[C@@H]1CC[C@]2(C=O)CC[C@]3(C)C(CCC4[C@@]5(C)Cc6cnoc6C(C)(C)C5CC[C@]43C)C12 (stereo partly drawn) [Compound 7]
[1]; 6 days treatment
  anti-invasive effects in 3D culture (in words): negligible effects on the invasive phenotype

## C=C(C)[C@@H]1CC[C@]2(COC(C)=O)CC[C@]3(C)C(CCC4[C@@]5(C)Cc6cnoc6C(C)(C)C5CC[C@]43C)C12 (stereo partly drawn) [Compound 8]
[1]; 6 days treatment
  anti-invasive effects in 3D culture (in words): negligible effects on the invasive phenotype

## C=C(C)[C@@H]1CC[C@]2(C(N)=O)CC[C@]3(C)C(CCC4[C@@]5(C)Cc6cnoc6C(C)(C)C5CC[C@]43C)C12 (stereo partly drawn) [Compound 9]
[1]; 6 days treatment
  anti-invasive effects in 3D culture (in words): negligible effects on the invasive phenotype

## C=C(C)[C@@H]1CC[C@]2(CO)CC[C@]3(C)C(CCC4[C@@]5(C)Cc6cnoc6C(C)(C)C5CC[C@]43C)C12 (stereo partly drawn) [Compound 10]
[1]; 6 days treatment
  anti-invasive effects in 3D culture (in words): negligible effects on the invasive phenotype

## C=C(C)[C@@H]1CC[C@]2(C(=O)N3CCCC3)CC[C@]3(C)C(CCC4[C@@]5(C)CCC(=O)C(C)(C)C5CC[C@]43C)C12 (stereo partly drawn) [Compound 11]
[1]; 6 days treatment
  anti-invasive effects in 3D culture (in words): None of these compounds showed significant anti-invasive effects

## C=C(C)[C@@H]1CC[C@]2(C(=O)NCCC)CC[C@]3(C)C(CCC4[C@@]5(C)CCC(=O)C(C)(C)C5CC[C@]43C)C12 (stereo partly drawn) [Compound 12]
[1]; 6 days treatment
  anti-invasive effects in 3D culture (in words): None of these compounds showed significant anti-invasive effects

## C=C(C)[C@@H]1CC[C@]2(C(=O)N3CCCCC3)CC[C@]3(C)C(CCC4[C@@]5(C)CCC(=O)C(C)(C)C5CC[C@]43C)C12 (stereo partly drawn) [Compound 13]
[1]; 6 days treatment
  anti-invasive effects in 3D culture (in words): None of these compounds showed significant anti-invasive effects

## C=C(C)[C@@H]1CC[C@]2(C(=O)N3CCOCC3)CC[C@]3(C)C(CCC4[C@@]5(C)CCC(=O)C(C)(C)C5CC[C@]43C)C12 (stereo partly drawn) [Compound 14]
[1]; 6 days treatment
  anti-invasive effects in 3D culture (in words): None of these compounds showed significant anti-invasive effects

## C=C(C)[C@@H]1CC[C@]2(C(N)=O)CC[C@]3(C)C(CCC4[C@@]5(C)Cc6nccnc6C(C)(C)C5CC[C@]43C)C12 (stereo partly drawn) [Compound 16]
[1]; 6 days treatment
  concentration at which anti-invasive effects are seen in 3D: 100 nM
  anti-invasive effects in 3D culture (in words): same high level of anti-invasive effects as compound 15
[3]
  efficacy in 3D LAPC-4 culture (dendrogram clusters): most active
[2]
  morphology and actin cytoskeleton of cells in 2D monolayer: No morphologies and visible effects on the actin cytoskeleton

## C=C(C)[C@@H]1CC[C@]2(C(=O)N3CCCCC3)CC[C@]3(C)C(CCC4[C@@]5(C)Cc6nccnc6C(C)(C)C5CC[C@]43C)C12 (stereo partly drawn) [Compound 17]
[1]; 6 days treatment
  anti-invasive effects in 3D culture (in words): inactive

## C=C(C)[C@@H]1CC[C@]2(C#N)CC[C@]3(C)C(CCC4[C@@]5(C)Cc6nccnc6C(C)(C)C5CC[C@]43C)C12 (stereo partly drawn) [Compound 18, Lupa-2,20(29)-dieno[2,3-b]pyrazino-28-nitrile]
[1]; 6 days treatment
  anti-invasive effects in 3D culture (in words): inactive

## C=C(C)[C@@H]1CC[C@]2(C(=O)N3CCCCC3)CC[C@]3(C)C(CCC4[C@@]5(C)CC[C@H](O)C(C)(C)C5CC[C@]43C)C12 (stereo partly drawn) [Compound 21]
[4]
  activity in validation (wound healing) in words: inactive

## C[C@@H](N)[C@H]1CC[C@H](C(=O)Nc2ccncc2)CC1 [Compound Y-27632, reference compound]
[2]
  morphology and actin cytoskeleton of cells in 2D monolayer: elongation

## Oc1ccc2ccccc2c1SSc1c(O)ccc2ccccc12 [IPA3, reference compound]
[2]
  morphology and actin cytoskeleton of cells in 2D monolayer: clear rounding

## C[C@]12CC[C@H](O)CC1=CC[C@@H]1[C@@H]2CC[C@]2(C)C(c3cccnc3)=CC[C@@H]12 [abiraterone, reference compound]
[1]; paclitaxel at 30 and 100 nM
  effect on morphometric measures (area, complexity, dead cells): no noticeable effect
[3]
  efficacy in 3D LAPC-4 culture (dendrogram clusters): efficacy of all positive controls
